Legend:
Format in all cases: in vivo
Chilo suppressalis = experiment: Example B1: Chilo suppressalis (striped rice stemborer), artificial diet, L2 larvae; conditions: 144 h, application rate of 200 ppm, 6 days after infestation, read-out: control in at least one of the three categories (mortality, anti-feedant effect, or growth inhibition)
How it was run: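 L2 larvae (6-8 per well) were placed on dried artificial diet that had been dosed with aqueous dilutions of 10,000 ppm DMSO stock solutions. After 6 days, control was credited if mortality, antifeedant effect or growth inhibition was higher than in untreated samples.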

Diabrotica balteata = experiment: Example B2: Diabrotica balteata (corn root worm), maize sprouts, L2 larvae; conditions: 96 h, application rate of 200 ppm, 4 days after infestation, read-out: control in at least one of the two categories (mortality or growth inhibition)
How it was run: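 Maize sprouts on agar sprayed with aqueous test solutions made from 10,000 ppm DMSO stocks, dried, then infested with 6 to 10 L2 larvae per well. Mortality and growth inhibition assessed versus untreated samples 4 days after infestation; application rate 200 ppm.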

Plutella xylostella [1] = experiment: Example B8: Plutella xylostella (diamond back moth), artificial diet 24-well, eggs; conditions: 192 h, application rate of 200 ppm, 8 days after infestation, read-out: effect in at least one of the two categories (mortality or growth inhibition)
How it was run: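 Plutella eggs placed onto dried, compound-treated artificial diet, the aqueous test solutions diluted from 10,000 ppm DMSO stocks. Eight days post-infestation, larvae rated for mortality and growth inhibition relative to untreated controls.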

Spodoptera littoralis [2] = experiment: Example B9: Spodoptera littoralis (Egyptian cotton leaf worm), cotton leaf discs, L1 larvae; conditions: foliar, 72 h, application rate of 200 ppm, 3 days after infestation, read-out: control in at least one of the three categories (mortality, anti-feedant effect, or growth inhibition)
How it was run: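 Five L1 larvae placed on sprayed, dried cotton leaf discs; spray solutions aqueous, from 10,000 ppm DMSO stocks. Control given when mortality, anti-feedant effect or growth inhibition exceeds untreated samples at 3 days.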

Plutella xylostella [3] = experiment: Example B12: Plutella xylostella (diamondback moth), artificial diet 96-well; conditions: 216 h, application rate of 500 ppm, 9 days after infestation
Method: Example B12: Plutella xylostella (Diamondback Moth)
96-well microtiter plates containing artificial diet were treated with aqueous test solutions, prepared from 10,000 ppm DMSO stock solutions, by a liquid handling robot. After drying, eggs (-30 per well) were infested onto a netted lid which was suspended above the diet. The eggs hatch and L1 larvae move down to the diet. The samples were assessed for mortality 9 days after infestation.
The following compounds gave an effect of at least 80% average mortality at an application rate of 500 ppm: […]

Euschistus heros = experiment: Example B3: Euschistus heros (neotropical brown stink bug), soybean leaves, N2 nymphs; conditions: 120 h, application rate of 200 ppm, 5 days after infestation, read-out: control in at least one of the two categories (mortality or growth inhibition)
Myzus persicae [4] = experiment: Example B7: Myzus persicae (green peach aphid), intrinsic activity, sucrose solution 24-well; conditions: 120 h, application rate of 12.5 ppm, 5 days after infestation, read-out: control (mortality)
How it was run: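 Compounds from 10,000 ppm DMSO stocks were mixed into sucrose solution in wells at a rate of 12.5 ppm. Aphid-infested pea seedlings were placed on a Parafilm membrane over the solution, so aphids fed through it. Mortality was scored 5 days after infestation.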

Spodoptera littoralis [5] = experiment: Example B10: Spodoptera littoralis (Egyptian cotton leaf worm), uptake by lettuce roots from agar; conditions: 144 h, test rate of 12.5 ppm, 6 days after infestation, read-out: effect in at least one of the three categories (mortality, anti-feeding, or growth inhibition)
Text: Example B10: Spodoptera littoralis (Egyptian Cotton Leaf Worm)
Test compounds were applied by pipette from 10,000 ppm DMSO stock solutions into 24-well plates and mixed with agar. Lettuce seeds were placed onto the agar and the multi well plate was closed by another plate which also contained agar. After 7 days the compound was absorbed by the roots and the lettuce grew into the lid plate. The lettuce leaves were then cut off into the lid plate. Spodoptera eggs were pipetted through a plastic stencil onto a humid gel blotting paper and the lid plate was closed with it. The samples were assessed for mortality, anti-feedant effect and growth inhibition in comparison to untreated samples 6 days after infestation.
The following compounds gave an effect of at least 80% in at least one of the three categories (mortality, anti-feeding, or growth inhibition) at a test rate of 12.5 ppm: […]

Myzus persicae [6] = experiment: Example B11: Myzus persicae (green peach aphid), sucrose solution 96-well; conditions: 120 h, application rate of 50 ppm, 5 days after infestation
Text: Example B11: Myzus persicae (Green Peach Aphid)
Test compounds prepared from 10,000 ppm DMSO stock solutions were applied by a liquid handling robot into 96-well microtiter plates and mixed with a sucrose solution. Parafilm was stretched over the 96-well microtiter plate and a plastic stencil with 96 holes was placed onto the plate. Aphids were sieved into the wells directly onto the Parafilm. The infested plates were closed with a gel blotting card and a second plastic stencil and then turned upside down. The samples were assessed for mortality 5 days after infestation.

Myzus persicae [7] = experiment: Example B5: Myzus persicae (green peach aphid), feeding/contact activity; conditions: 144 h, application rate of 200 ppm, 6 days after infestation
Method: Example B5: Myzus persicae (Green Peach Aphid):Feeding/Contact Activity
Sunflower leaf discs were placed onto agar in a 24-well microtiter plate and sprayed with aqueous test solutions prepared from 10,000 ppm DMSO stock solutions. After drying, the leaf discs were infested with an aphid population of mixed ages. The samples were assessed for mortality 6 days after infestation.

[8] = test system: Frankliniella occidentalis; experiment: Example B4: Frankliniella occidentalis (western flower thrips), feeding/contact activity; conditions: 168 h, application rate of 200 ppm, 7 days after infestation
Method: Example B4: Frankliniella occidentalis (Western Flower Thrips):Feeding/Contact Activity
Sunflower leaf discs were placed on agar in 24-well microtiter plates and sprayed with aqueous test solutions prepared from 10,000 DMSO stock solutions. After drying the leaf discs were infested with a Frankliniella population of mixed ages. The samples were assessed for mortality 7 days after infestation.

Myzus persicae [9] = experiment: Example B6: Myzus persicae (green peach aphid), systemic activity, pea seedlings; conditions: 144 h, test rate of 24 ppm, 6 days after placing seedlings into test solutions
Method: Example B6: Myzus persicae (Green Peach Aphid). Systemic Activity
Roots of pea seedlings infested with an aphid population of mixed ages were placed directly into aqueous test solutions prepared from 10,000 DMSO stock solutions. The samples were assessed for mortality 6 days after placing seedlings into test solutions.

Tetranychus urticae = experiment: Example B13: Tetranychus urticae (two-spotted spider mite), feeding/contact activity; conditions: 192 h, read-out: mortality on mixed population (mobile stages)
Method: Example B13: Tetranychus urticae (Two-Spotted Spider Mite):Feeding/Contact Activity
Bean leaf discs on agar in 24-well microtiter plates were sprayed with aqueous test solutions prepared from 10,000 ppm DMSO stock solutions. After drying the leaf discs were infested with a mite population of mixed ages. The samples were assessed for mortality on mixed population (mobile stages) 8 days after infestation.

CC(NC(=O)Nc1ccc(C(F)(F)F)cc1Cl)c1ncnn1-c1ccc(C#N)cn1 (stereo not drawn) [Example P4, 1-[2-chloro-4-(trifluoromethyl)phenyl]-3-[1-[2-(5-cyano-2-pyridyl)-1,2,4-triazol-3-yl]ethyl]urea]
≥ 80%: percent control (mortality, anti-feedant effect or growth inhibition) at 200 ppm (Chilo suppressalis) | percent control (mortality or growth inhibition) at 200 ppm (Diabrotica balteata) | percent effect (mortality or growth inhibition) at 200 ppm (Plutella xylostella [1]) | percent control (mortality, anti-feedant effect or growth inhibition) at 200 ppm (Spodoptera littoralis [2]) | mortality at 500 ppm (Plutella xylostella [3])

CC(NC(=O)Nc1ccc(C(F)(F)F)cc1Cl)c1ncnn1-c1ncccn1 (stereo not drawn) [Example P5, 1-[2-chloro-4-(trifluoromethyl)phenyl]-3-[1-(2-pyrimidin-2-yl-1,2,4-triazol-3-yl)ethyl]urea]
≥ 80%: percent control (mortality, anti-feedant effect or growth inhibition) at 200 ppm (Chilo suppressalis) | percent control (mortality or growth inhibition) at 200 ppm (Diabrotica balteata) | percent control (mortality or growth inhibition) at 200 ppm (Euschistus heros) | mortality at 12.5 ppm (Myzus persicae [4]) | percent effect (mortality or growth inhibition) at 200 ppm (Plutella xylostella [1]) | percent control (mortality, anti-feedant effect or growth inhibition) at 200 ppm (Spodoptera littoralis [2]) | percent effect (mortality, anti-feeding or growth inhibition) at 12.5 ppm (Spodoptera littoralis [5]) | mortality at 50 ppm (Myzus persicae [6]) | mortality at 500 ppm (Plutella xylostella [3])

CC(NC(=O)Nc1ccc(Cl)cc1C(F)(F)F)c1ncnn1-c1ncccn1 (stereo not drawn) [Example P6, 1-[4-chloro-2-(trifluoromethyl)phenyl]-3-[1-(2-pyrimidin-2-yl-1,2,4-triazol-3-yl)ethyl]urea]
≥ 80%: percent control (mortality, anti-feedant effect or growth inhibition) at 200 ppm (Chilo suppressalis) | percent control (mortality or growth inhibition) at 200 ppm (Diabrotica balteata) | mortality at 12.5 ppm (Myzus persicae [4]) | percent effect (mortality or growth inhibition) at 200 ppm (Plutella xylostella [1]) | percent control (mortality, anti-feedant effect or growth inhibition) at 200 ppm (Spodoptera littoralis [2]) | mortality at 50 ppm (Myzus persicae [6]) | mortality at 500 ppm (Plutella xylostella [3])

C[C@H](NC(=O)Nc1cc(OC(F)(F)C(F)F)c(Cl)cc1Cl)c1ncnn1-c1ncccn1 [Example P46, 1-[2,4-dichloro-5-(1,1,2,2-tetrafluoroethoxy)phenyl]-3-[(1S)-1-(2-pyrimidin-2-yl-1,2,4-triazol-3-yl)ethyl]urea]
≥ 80%: percent control (mortality, anti-feedant effect or growth inhibition) at 200 ppm (Chilo suppressalis) | percent control (mortality or growth inhibition) at 200 ppm (Diabrotica balteata) | percent control (mortality or growth inhibition) at 200 ppm (Euschistus heros) | mortality at 200 ppm (Myzus persicae [7]) | mortality at 12.5 ppm (Myzus persicae [4]) | percent effect (mortality or growth inhibition) at 200 ppm (Plutella xylostella [1]) | percent control (mortality, anti-feedant effect or growth inhibition) at 200 ppm (Spodoptera littoralis [2]) | mortality at 50 ppm (Myzus persicae [6])

C[C@H](NC(=O)Nc1cnc(C(F)(F)F)cc1Cl)c1ncnn1-c1ncccn1 [Example P103, 1-[4-chloro-6-(trifluoromethyl)-3-pyridyl]-3-[(1S)-1-(2-pyrimidin-2-yl-1,2,4-triazol-3-yl)ethyl]urea]
≥ 80%: percent control (mortality, anti-feedant effect or growth inhibition) at 200 ppm (Chilo suppressalis) | percent control (mortality or growth inhibition) at 200 ppm (Diabrotica balteata) | percent control (mortality or growth inhibition) at 200 ppm (Euschistus heros) | mortality at 200 ppm [8] | mortality at 200 ppm (Myzus persicae [7]) | mortality at 24 ppm (Myzus persicae [9]) | mortality at 12.5 ppm (Myzus persicae [4]) | percent effect (mortality or growth inhibition) at 200 ppm (Plutella xylostella [1]) | percent control (mortality, anti-feedant effect or growth inhibition) at 200 ppm (Spodoptera littoralis [2]) | mortality at 50 ppm (Myzus persicae [6])

C[C@H](NC(=O)N(C)c1cnc(C(F)(F)F)cc1Cl)c1ncnn1-c1ncccn1 [Example P235, 1-[4-chloro-6-(trifluoromethyl)-3-pyridyl]-1-methyl-3-[(1S)-1-(2-pyrimidin-2-yl-1,2,4-triazol-3-yl)ethyl]urea]
≥ 80%: percent control (mortality, anti-feedant effect or growth inhibition) at 200 ppm (Chilo suppressalis) | percent control (mortality or growth inhibition) at 200 ppm (Euschistus heros) | mortality at 200 ppm [8] | mortality at 200 ppm (Myzus persicae [7]) | mortality at 24 ppm (Myzus persicae [9]) | mortality at 12.5 ppm (Myzus persicae [4]) | percent effect (mortality or growth inhibition) at 200 ppm (Plutella xylostella [1])

C[C@H](NC(=O)Nc1cnc(C(F)(F)F)cc1Cl)c1ncnn1-c1cnccn1 [Example P277, 1-[4-chloro-6-(trifluoromethyl)-3-pyridyl]-3-[(1S)-1-(2-pyrazin-2-yl-1,2,4-triazol-3-yl)ethyl]urea]
≥ 80%: percent control (mortality, anti-feedant effect or growth inhibition) at 200 ppm (Chilo suppressalis) | percent control (mortality or growth inhibition) at 200 ppm (Diabrotica balteata) | percent control (mortality or growth inhibition) at 200 ppm (Euschistus heros) | mortality at 200 ppm (Myzus persicae [7]) | mortality at 12.5 ppm (Myzus persicae [4]) | percent effect (mortality or growth inhibition) at 200 ppm (Plutella xylostella [1]) | percent control (mortality, anti-feedant effect or growth inhibition) at 200 ppm (Spodoptera littoralis [2]) | mortality at 200 ppm (Tetranychus urticae)
